The test system of one assay is Rattus norvegicus. As to the kind of experiment: Minimum effective dose(ip) required for inhibition of serotonin-induced bradycardic response in the Bezold-Jarisch reflex functional model. Conditions: for minimal effective dose: Rattus norvegicus, ip, read-out: MED.
In assay [1] the target is T1, 5-hydroxytryptamine receptor 3A (Rattus norvegicus, UniProt P35563).
T1 sequence (P35563 whole entry): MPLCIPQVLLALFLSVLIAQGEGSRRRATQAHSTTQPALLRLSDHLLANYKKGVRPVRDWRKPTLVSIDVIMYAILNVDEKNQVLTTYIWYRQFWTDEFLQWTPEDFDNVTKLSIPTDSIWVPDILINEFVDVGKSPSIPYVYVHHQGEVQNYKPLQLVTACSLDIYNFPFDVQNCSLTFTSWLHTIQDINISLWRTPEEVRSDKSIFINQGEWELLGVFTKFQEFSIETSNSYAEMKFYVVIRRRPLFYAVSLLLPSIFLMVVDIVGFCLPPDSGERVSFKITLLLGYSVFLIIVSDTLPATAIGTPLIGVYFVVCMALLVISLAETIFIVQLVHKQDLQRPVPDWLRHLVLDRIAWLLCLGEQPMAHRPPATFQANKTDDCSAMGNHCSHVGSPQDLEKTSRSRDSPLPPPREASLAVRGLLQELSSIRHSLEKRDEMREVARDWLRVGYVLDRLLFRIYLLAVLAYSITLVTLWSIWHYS
As to the kind of experiment: Compound was evaluated […] for the antagonistic activity towards 5-hydroxytryptamine 3 receptor. Format: functional.

For assay [2], the target named is 5-hydroxytryptamine receptor 4 (Rattus norvegicus, UniProt Q62758). As to the kind of experiment: Compound was evaluated for the agonistic activity towards 5-hydroxytryptamine 4 receptor using the rat tunica muscularis mucosae (TMM) esophagus strip assay. Format: functional, tissue-based, Muscularis mucosa.

Molecules are shown by their SMILES.

Chain of 5-hydroxytryptamine receptor 4 (Q62758 whole entry): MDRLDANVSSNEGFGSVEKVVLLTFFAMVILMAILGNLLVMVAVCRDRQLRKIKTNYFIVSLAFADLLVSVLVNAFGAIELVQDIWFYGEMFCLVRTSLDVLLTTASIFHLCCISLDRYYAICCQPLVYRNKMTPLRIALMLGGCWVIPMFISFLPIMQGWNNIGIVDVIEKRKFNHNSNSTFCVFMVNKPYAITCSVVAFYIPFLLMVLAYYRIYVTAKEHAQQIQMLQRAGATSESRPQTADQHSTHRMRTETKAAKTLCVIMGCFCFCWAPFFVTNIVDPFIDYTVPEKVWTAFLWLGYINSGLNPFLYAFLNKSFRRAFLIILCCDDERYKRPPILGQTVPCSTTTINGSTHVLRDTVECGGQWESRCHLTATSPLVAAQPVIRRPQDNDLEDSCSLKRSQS

Take `COc1cc(N)c(Cl)cc1C(=O)N[C@H]1C2CC3CN(C2)CC31` (some centres undefined): the minimal effective dose in the assay with Rattus norvegicus was 0.01 mg/kg. In assay [1], this compound had a Ki of 3.9 nM. The EC50 in assay [2] is 3870 nM.
On to `COc1cc(N)c(Cl)cc1C(=O)N[C@@H]1C2CC3CN(C2)CC31` (some centres undefined), for which the minimal effective dose in the assay with Rattus norvegicus stood at 0.01 mg/kg. In addition, the Ki in assay [1] stood at 1.2 nM. The compound also had an EC50 in assay [2] of 51.3 nM.
As to `COc1cc(N)c(Cl)cc1C(=O)N[C@@H]1CN2CCC1CC2`, the minimal effective dose in the assay on Rattus norvegicus came out at 0.3 mg/kg. In assay [1], the affinity, expressed as Ki, was 0.23 nM. Besides, the EC50 in assay [2] turned out to be 203 nM.
As to `COc1cc(N)c(Cl)cc1C(=O)NC1C2CC3CC1CN(C3)C2` (stereo in doubt), the MED in the assay on Rattus norvegicus amounted to 0.03 mg/kg. The compound also came in with a Ki in assay [1] of 9 nM. In addition, the EC50 in assay [2] was determined as 262 nM.
For `COc1cc(N)c(Cl)cc1C(=O)NC1C2CC3CC1CN(C3)C2` (stereo in doubt; 1A), in the assay on Rattus norvegicus, the MED is 10 mg/kg. In assay [1], this compound yielded a Ki of 336 nM. The compound also came in with an EC50 in assay [2] of 538 nM.
As to `COc1cc(N)c(Cl)cc1C(=O)N[C@@H]1CCN(CCCOc2ccc(F)cc2)C[C@@H]1OC` [CISAPRIDE], in the assay on Rattus norvegicus, the minimal effective dose came to 5 mg/kg.
Turning to `COc1cc(N)c(Cl)cc1C(=O)NC1CCN2CCCC1C2` (centres undefined) [RENZAPRIDE], the minimal effective dose in the assay on Rattus norvegicus turned out to be 0.25 mg/kg. In addition, in assay [1], the affinity, expressed as Ki, was 5.6 nM. In addition, in assay [2], the EC50 was 98 nM.

(Values after ChEMBL document CHEMBL1126380, “New aza(nor)adamantanes are agonists at the newly identified serotonin 5-HT4 receptor and antagonists at the 5-HT3 receptor” (Bioorg Med Chem Lett, 1992).)
